Data: patent US7495104B2, “Quinoline or quinazoline derivatives inhibiting auto-phosphorylation of fibroblast growth factor receptors” (Kirin Beer Kabushiki Kaisha, priority 2001, dated 2009)

Target: Bek (Homo sapiens, UniProt P21802)
Assay: Inhibitory activity against Bek-autophosphorylation using ELISA method in OCUM-2MD3 cells
Assay type: cell-based
Conditions: 1 hr with compound, read-out: IC50 (concentration necessary for inhibiting 50% of Bek-phosphorylation)
Summary of the method: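 Sandwich ELISA (anti-phosphotyrosine capture, anti-Bek detection, peroxidase, 450 nm) measured Bek autophosphorylation in OCUM-2MD3 lysates after 1 hr compound treatment at 37° C in 0.1% serum medium. IC50 derived by scaling between no-drug (100%) and excess positive control at 1000 nM (0%).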

Chain of Bek (P21802 431-767 limits assumed): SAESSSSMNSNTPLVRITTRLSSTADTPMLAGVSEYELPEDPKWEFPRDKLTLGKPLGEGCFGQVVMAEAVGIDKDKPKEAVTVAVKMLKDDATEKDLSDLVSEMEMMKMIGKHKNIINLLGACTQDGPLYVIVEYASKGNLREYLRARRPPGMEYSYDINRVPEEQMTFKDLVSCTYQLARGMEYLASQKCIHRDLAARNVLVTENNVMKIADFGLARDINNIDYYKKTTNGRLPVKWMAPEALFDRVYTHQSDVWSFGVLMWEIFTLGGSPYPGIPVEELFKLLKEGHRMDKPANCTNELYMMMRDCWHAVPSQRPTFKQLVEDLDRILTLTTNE

For COc1cc2c(Oc3ccc(Nc4ccc(C(C)(C)C)cc4)cc3)ccnc2cc1OCCCN1CCC(N2CCCC2)CC1 [Compound 237, (4-Tert-butyl-phenyl)-(4-{6-methoxy-7-[3-(4-pyrrolidin-1-yl-piperidin-1-yl)-propoxy]-quinolin-4-yloxy}-phenyl)-amine], which IC50 is on record?
Its IC50 is 207 nM.

How did the IC50 turn out when COc1cc2c(Oc3ccc(Nc4ccc(C(C)(C)C)cc4)cc3)ccnc2cc1OCCC(C)N1CCOCC1 (stereo not drawn) [Compound 80, (4-Tert-butylphenyl)-{4-[6-methoxy-7-(3-morpholin-4-ylbutoxy)-quinolin-4-yloxy]phenyl}amine] was run?
The IC50 was 151 nM.

Which IC50 does the source give for COc1cc2c(Oc3ccc(Nc4ccc(C(C)(C)C)cc4)cc3)ccnc2cc1OC[C@H](O)CN1CCOCC1 [Compound 70, (R)-1-{4-[4-(4-Tert-butylphenylamino)phenoxy]-6-methoxyquinolin-7-yloxy}-3-morpholin-4-ylpropan-2-ol] here?
The IC50 was 68.5 nM.

Which IC50 does the source give for COc1cc2nccc(Oc3ccc(Nc4ccc(OC(F)(F)F)cc4)cc3)c2cc1OC [Compound 6, [4-(6,7-Dimethoxyquinolin-4-yloxy)phenyl]-(4-trifluoromethoxy-phenyl)amine] here?
Its IC50 is 875 nM.

With CCCN(CCO)CCOc1cc2nccc(Oc3ccc(Nc4ccc(C(C)(C)C)cc4)cc3)c2cc1OC [Compound 366, 2-[(2-{4-[4-(4-Tert-butyl-phenylamino)-phenoxy]-6-methoxy-quinolin-7-yloxy}-ethyl)-propyl-amino]-ethanol] as the molecule, how does the IC50 read?
The IC50 was 257 nM.

With COc1cc2c(Oc3ccc(NC(=O)NCCC(C)(C)C)cc3F)ccnc2cc1OCCN1CCC(CCO)CC1 [Compound 297, 1-(3,3-Dimethyl-butyl)-3-[3-fluoro-4-(7-{2-[4-(2-hydroxy-ethyl)-piperidin-1-yl]-ethoxy}-6-methoxy-quinolin-4-yloxy)-phenyl]-urea] as the molecule, how does the IC50 read?
Its IC50 is 42.4 nM.

How did the IC50 turn out when CCN(CC)CCCOc1cc2nccc(Oc3ccc(Nc4ccc(C(C)(C)C)cc4)cc3)c2cc1OC [Compound 47, N1-[4-(Tert-butyl)phenyl]-4-({7-[3-(diethylamino)propoxy]-6-methoxy-4-quinolyl}oxy)aniline] was run?
Its IC50 is 243 nM.

How did the IC50 turn out when CCN(CC)CCOc1cc2nccc(Oc3ccc(Nc4ccc(C(C)(C)C)cc4)cc3)c2cc1OC [Compound 41, N1-[4-(Tert-butyl)phenyl]-4-({7-[2-(diethylamino)ethoxy]-6-methoxy-4-quinolyl}oxy)aniline] was run?
Its IC50 is 480 nM.

COc1cc2c(Oc3ccc(Nc4ccc(C(C)(C)C)cc4)cc3)ccnc2cc1OCCCCN1CCOCC1 [Compound 25, (4-Tert-butylphenyl)-{4-[6-methoxy-7-(4-morpholin-4-ylbutoxy)-quinolin-4-yloxy]phenyl}amine] was tested. Which IC50 did it give?
Its IC50 is 199 nM.

Which IC50 does the source give for COc1cc2c(Oc3ccc(NC(=O)NCCC(C)(C)C)cc3)ccnc2cc1OCCN(CCO)C(C)C [Compound 370, 1-(3,3-Dimethyl-butyl)-3-[4-(7-{2-[(2-hydroxy-ethyl)-isopropyl-amino]-ethoxy}-6-methoxy-quinolin-4-yloxy)-phenyl]-urea] here?
Its IC50 is 130 nM.

COc1cc2c(Oc3ccc(NC(=O)NCCC(C)(C)C)cc3Cl)ccnc2cc1OCCCN1CCC(O)CC1 [Compound 338, 1-(3-Chloro-4-{7-[3-(4-hydroxy-piperidin-1-yl)-propoxy]-6-methoxy-quinolin-4-yloxy}-phenyl)-3-(3,3-dimethyl-butyl)-urea] was tested. Which IC50 did it give?
Its IC50 is 16.6 nM.

Which IC50 does the source give for COc1cc2nccc(Oc3ccc(Nc4ccc(C(C)(C)C)cc4)cc3)c2cc1OCCN(C)CCO [Compound 357, 2-[(2-{4-[4-(4-Tert-butyl-phenylamino)-phenoxy]-7-methoxy-quinolin-6-yloxy}-ethyl)-methyl-amino]-ethanol] here?
The IC50 was 213 nM.

CCN(CCO)CCOc1cc2nccc(Oc3ccc(NC(=O)NCCC(C)(C)C)c(F)c3)c2cc1OC [Compound 341, 1-(3,3-Dimethyl-butyl)-3-[4-(7-{2-[ethyl-(2-hydroxy-ethyl)-amino]-ethoxy}-6-methoxy-quinolin-4-yloxy)-2-fluoro-phenyl]-urea] was tested. Which IC50 did it give?
Its IC50 is 28.9 nM.

COc1cc2c(Oc3ccc(NC(=O)NCCC(C)(C)C)cc3F)ccnc2cc1OCCN1CC(C)OC(C)C1 (stereo not drawn) [Compound 128, 1-(3,3-Dimethyl-butyl)-3-(4-{7-[2-(2,6-dimethyl-morpholin-4-yl)-ethoxy]-6-methoxy-quinolin-4-yloxy}-3-fluoro-phenyl)-urea] was tested. Which IC50 did it give?
The IC50 was less than 10 nM.

With COc1cc2c(Oc3ccc(NC(=O)NCCC(C)(C)C)c(Cl)c3)ccnc2cc1OCCCN1CCC(C)CC1 [Compound 207, 1-(2-Chloro-4-{6-methoxy-7-[3-(4-methyl-piperidin-1-yl)-propoxy]-quinolin-4-yloxy}-phenyl)-3-(3,3-dimethyl-butyl)-urea] as the molecule, how does the IC50 read?
The IC50 was 60 nM.

For COc1cc2c(Oc3ccc(Nc4ccc(C(C)(C)C)cc4)cc3Cl)ccnc2cc1OCCCN1CCC(CCO)CC1 [Compound 314, 2-[1-(3-{4-[4-(4-Tert-butyl-phenylamino)-2-chloro-phenoxy]-6-methoxy-quinolin-7-yloxy}-propyl)-piperidin-4-yl]-ethanol], which IC50 is on record?
Its IC50 is 277 nM.

With COc1cc2c(Oc3ccc(NC(=O)NCCC(C)(C)C)c(Cl)c3)ccnc2cc1OCCCN1CCN(C)CC1 [Compound 187, 1-(2-Chloro-4-{6-methoxy-7-[3-(4-methyl-piperazin-1-yl)-propoxy]-quinolin-4-yloxy}-phenyl)-3-(3,3-dimethyl-butyl)-urea] as the molecule, how does the IC50 read?
Its IC50 is 22.3 nM.

COc1cc2c(Oc3ccc(NC(=O)NCCC(C)(C)C)cc3F)ccnc2cc1OCCCN1CC(C)OC(C)C1 (stereo not drawn) [Compound 327, 1-(3,3-Dimethyl-butyl)-3-(4-{7-[3-(2,6-dimethyl-morpholin-4-yl)-propoxy]-6-methoxy-quinolin-4-yloxy}-3-fluoro-phenyl)-urea] was tested. Which IC50 did it give?
Its IC50 is 20.6 nM.

COc1cc2c(Oc3ccc(NC(=O)NCCC(C)(C)C)cc3Cl)ccnc2cc1OCCN1CCOCC1 [Compound 126, 1-{3-Chloro-4-[6-methoxy-7-(2-morpholin-4-yl-ethoxy)-quinolin-4-yloxy]-phenyl}-3-(3,3-dimethyl-butyl)-urea] was tested. Which IC50 did it give?
Its IC50 is 13.3 nM.

COc1cc2c(Oc3ccc(NC(=O)NCCC(C)(C)C)cc3)ccnc2cc1OCC(O)CN1CCC(c2ccccc2)CC1 (stereo not drawn) [Compound 252, 1-(3,3-Dimethyl-butyl)-3-(4-{7-[2-hydroxy-3-(4-phenyl-piperidin-1-yl)-propoxy]-6-methoxy-quinolin-4-yloxy}-phenyl)-urea] was tested. Which IC50 did it give?
Its IC50 is 42.6 nM.

For COc1cc2c(Oc3ccc(NC(=O)NCCC(C)(C)C)cc3)ccnc2cc1OCCN1CCC(CO)CC1 [Compound 371, 1-(3,3-Dimethyl-butyl)-3-(4-{7-[2-(4-hydroxymethyl-piperidin-1-yl)-ethoxy]-6-methoxy-quinolin-4-yloxy}-phenyl)-urea], which IC50 is on record?
The IC50 was less than 10 nM.

With COc1cc2c(Oc3ccc(Nc4ccc(C(C)(C)C)cc4)cc3)ccnc2cc1OCCCN1CCC(CO)CC1 [Compound 217, [1-(3-{4-[4-(4-Tert-butyl-phenylamino)-phenoxy]-6-methoxy-quinolin-7-yloxy}-propyl)-piperidin-4-yl]-methanol] as the molecule, how does the IC50 read?
Its IC50 is 40.9 nM.

For COc1cc2nccc(Oc3ccc(NC(=O)NCCC(C)(C)C)c(C)c3)c2cc1OC [Compound 136, 1-[4-(6,7-Dimethoxy-quinolin-4-yloxy)-2-methyl-phenyl]-3-(3,3-dimethyl-butyl)-urea], which IC50 is on record?
Its IC50 is 56.2 nM.

With COc1cc2c(Oc3ccc(Nc4ccc(C(C)(C)C)cc4)cc3)ccnc2cc1OCCN(CCO)C(C)C [Compound 367, 2-[(2-{4-[4-(4-Tert-butyl-phenylamino)-phenoxy]-6-methoxy-quinolin-7-yloxy}-ethyl)-isopropyl-amino]-ethanol] as the molecule, how does the IC50 read?
The IC50 was 468 nM.

For COc1cc2c(Oc3ccc(Nc4ccc(C(C)(C)C)cc4)cc3)ccnc2cc1OCCCN1CCCC1 [Compound 53, (4-Tert-butylphenyl)-{4-[6-methoxy-7-(3-pyrrolidin-1-ylpropoxy)-quinolin-4-yloxy]phenyl}amine], which IC50 is on record?
Its IC50 is 38 nM.

With COc1cc2c(Oc3ccc(Nc4ccc(C(C)(C)C)cc4)cc3)ccnc2cc1OCCN1CCCN(C)CC1 [Compound 45, (4-Tert-butylphenyl)-(4-{6-methoxy-7-[2-(4-methyl-[1,4]diazepin-1-yl)ethoxy]quinolin-4-yloxy}phenyl)amine] as the molecule, how does the IC50 read?
Its IC50 is 240 nM.

For COc1cc2ncnc(Oc3ccc(Nc4ccc(C(C)(C)C)cc4)cc3)c2cc1OC [Compound 74, (4-Tert-butylphenyl)-[4-(6,7-dimethoxyquinazolin-4-yloxy)-phenyl]amine], which IC50 is on record?
Its IC50 is 521 nM.

Which IC50 does the source give for COc1cc2nccc(Oc3ccc(NC(=O)NC4CC(C)CC(C)(C)C4)cc3)c2cc1OC (stereo not drawn) [Compound 105, 1-[4-(6,7-Dimethoxy-quinolin-4-yloxy)-phenyl]-3-(3,3,5-trimethyl-cyclohexyl)-urea] here?
The IC50 was 30.6 nM.

With COc1cc2c(Oc3ccc(Nc4ccc(C(C)(C)C)cc4)c(F)c3)ccnc2cc1OCCCN1CCC(CO)CC1 [Compound 290, [1-(3-{4-[4-(4-Tert-butyl-phenylamino)-3-fluoro-phenoxy]-6-methoxy-quinolin-7-yloxy}-propyl)-piperidin-4-yl]-methanol] as the molecule, how does the IC50 read?
The IC50 was 233 nM.

Which IC50 does the source give for COCC1CCN(CCCOc2cc3nccc(Oc4ccc(NC(=O)NCCC(C)(C)C)cc4)c3cc2OC)CC1 [Compound 282, 1-(3,3-Dimethyl-butyl)-3-(4-{6-methoxy-7-[3-(4-methoxymethyl-piperidin-1-yl)-propoxy]-quinolin-4-yloxy}-phenyl)-urea] here?
Its IC50 is 31.6 nM.

For COc1cc2c(Oc3ccc(Nc4ccc(C(C)(C)C)cc4)cc3)ccnc2cc1OCCN(CCO)C1CCCCC1 [Compound 364, 2-[(2-{4-[4-(4-Tert-butyl-phenylamino)-phenoxy]-6-methoxy-quinolin-7-yloxy}-ethyl)-cyclohexyl-amino]-ethanol], which IC50 is on record?
The IC50 was 230 nM.

How did the IC50 turn out when COc1cc2nccc(Oc3ccc(NC(=O)NCCC(C)(C)C)c(F)c3)c2cc1OC [Compound 111, 1-[4-(6,7-Dimethoxy-quinolin-4-yloxy)-2-fluoro-phenyl]-3-(3,3-dimethyl-butyl)-urea] was run?
Its IC50 is less than 10 nM.

Which IC50 does the source give for COc1cc2c(Oc3ccc(NC(=O)NCCC(C)(C)C)cc3Cl)ccnc2cc1OCCCN1CCC(CCO)CC1 [Compound 316, 1-[3-Chloro-4-(7-{3-[4-(2-hydroxy-ethyl)-piperidin-1-yl]-propoxy}-6-methoxy-quinolin-4-yloxy)-phenyl]-3-(3,3-dimethyl-butyl)-urea] here?
The IC50 was 85.1 nM.
